The numbers were not newly measured in patent US10329321B2, “Site-selective functionalization of proteins using traceless affinity labels” (priority 2016, dated 2019), which cites them from elsewhere.

For series [1] the following is noted: imidazole ring of histidine or its fluorinated replacement.
For series [2], the target named is nucleotide binding pocket (NBP) in immunoglobulin Fab arms. The note with it: binding affinity dependent on the antibody.

As usually defined, the pKa is the negative logarithm of the acid dissociation constant. Turning to `Fc1ncc[nH]1` [2-fluoro-imidazole], in series [1], the pKa is listed as ~1.22.
Turning to `Fc1c[nH]cn1` [4-fluoro-imidazole], in series [1], the pKa is ~1.76.
As for `N[C@@H](Cc1c[nH]cn1)C(=O)O` [histidine], the pKa in series [1] is reported as ~6.
By Kd is commonly meant the concentration at which binding is half-saturated. With `O=C(O)CCCc1c[nH]c2ccccc12` [indole-3-butryic acid, 4-(3-indolyl)butyric acid], the Kd in series [2] was 1 to 8 µM.
